Measurements: patent publication US20260272883A1, “SOLID STATE FORMS OF PIRTOBRUTINIB AND PROCESS FOR THE PREPARATION OF INTERMEDIATE THEREOF” (DR. REDDY'S LABORATORIES LIMITED, priority 2023, published 2026)

Key:
[1] = Stability of crystalline form P1 at 25° C./60% RH and 40° C./75% RH for 3 months (closed conditions); assay type: physicochemical
[2] = Stability of crystalline form P1 under 80% RH (open condition) and illumination (300-400 nm); assay type: physicochemical

With COc1ccc(F)cc1C(=O)NCc1ccc(-c2nn([C@@H](C)C(F)(F)F)c(N)c2C(N)=O)cc1 [Crystalline form P1 of Pirtobrutinib, (S)-5-amino-3-(4-((5-fluoro-2-methoxybenzamido)methyl)phenyl)-1-(1,1,1-trifluoropropan-2-yl)-1H-pyrazole-4-carboxamide] the Purity ([1]; 0 Day) was 98.9%, the Stability ([1]; 3 months at accelerated conditions) was “stable” and the Purity ([1]; 25° C./60% RH (Closed Condition) (3 months)) was 98.7%. The “Physical and chemical stability” value ([1]; 25° C./60% RH for 3 months under closed conditions) was “physically and chemically stable”, the Purity ([1]; 40° C./75% RH (Closed Condition) (3 months)) was 98.9% and the Stability ([1]; 40° C./75% RH for 3 months under closed conditions) was “stable”. The Purity ([2]; 0 Day) was 98.9%, the Purity ([2]; Exposure at 80% RH for 1 day (Open Condition)) was 98.9% and the Purity ([2]; Illumination (300-400 nm) for 24 hours) was 98.9%. For the same compound, the Stability ([2]; high humidity and illumination conditions) was “stable”, the “Physical and chemical stability” value ([2]; kept at 80% RH in open condition) was “physically and chemically stable” and the “Physical and chemical stability” value ([2]; kept under illumination (300-400 nm) for 24 hours) was “physically and chemically stable”.
